Where “and” joins values, the source holds several entries; their conditions need not be identical. Equal entries are not always repeated.
Experiments:
HDAC3/NcoR2 complex = biological target: T1, HDAC3/NcoR2 complex (Homo sapiens, UniProt O15379); experiment: HDAC-Glo assay; format: biochemical; conditions: for EC50: read-out: log EC50 from dose-dependent HDAC inhibition curves (converted); for HDCA3 relative activity: sheet S2b
T1 construct: purchased BPS Bioscience 50003
Description: To validate the inhibition of HDACs by LA and LM and elaborate on the structure-activity relationship (SAR) of enantiomers as well as oxidized versus reduced forms of the molecules, we performed enzyme activity assays for recombinant HDAC1,2,3,6,8 as well as FRET-based binding assay for recombinant HDAC10.
The experiments were performed according to ref. [48]. […] Drug dosing was performed with a D300e Digital Dispenser (Tecan). HDACs (7 ng/mL for HDAC1, 25 ng/mL for HDAC2, 200 ng/mL for HDAC3/Ncor2 complex, 100 ng/mL for HDAC6, 200 ng/mL for HDAC8) and inhibitors were incubated together at room temperature (RT) for 30 min. After the addition of the HDAC-Glo™ I/II reagent, plates were shaken (800 rpm orbital shaker, 30 s), centrifuged (300 g, 1 min), and incubated at RT for 30 min. Luminescence was detected with a CLARIOstar (BMG Labtech) plate reader.

HDAC8 = biological target: T2, HDAC8 (Homo sapiens, UniProt Q9BY41); experiment: Chemoproteomic competition pulldown assay; format: binding; set-up: endogenous in cells; host or cells: SW620 lysate; conditions: iQ; for Kd: SW620, read-out: pKdapp (converted); for relative binding vs DMSO: SW620 lysate
T2 sequence (Q9BY41 1-377): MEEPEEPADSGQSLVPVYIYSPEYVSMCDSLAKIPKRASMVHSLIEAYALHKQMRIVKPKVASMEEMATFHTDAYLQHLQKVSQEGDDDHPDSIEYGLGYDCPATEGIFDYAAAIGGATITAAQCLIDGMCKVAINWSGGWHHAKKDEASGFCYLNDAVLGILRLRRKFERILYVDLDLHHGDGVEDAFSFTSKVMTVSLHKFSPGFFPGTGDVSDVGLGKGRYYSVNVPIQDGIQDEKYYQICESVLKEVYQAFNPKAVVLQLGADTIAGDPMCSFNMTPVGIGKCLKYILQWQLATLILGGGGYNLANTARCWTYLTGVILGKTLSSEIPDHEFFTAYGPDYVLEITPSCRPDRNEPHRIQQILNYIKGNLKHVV
Description: To identify proteins directly bound by lipoic acid, we employed a chemoproteomic competition assay. Briefly, (R/S)-LA was immobilized on sepharose beads via an amidation reaction to form an affinity matrix (abbreviated as iL; Fig. 1a). This affinity matrix can be incubated with cell lysate to pull down potential LA or LM target proteins and identify these targets via bottom-up proteomics. In a competition assay, free LA or LM were incubated with lysate at different concentrations before pulling down and quantifying target proteins. […] (Fig. 1b, see “Methods” for details). […] The lysate buffer used in this assay contains 1 mM DTT to mimic the intracellular reductive milieu and to reduce lipoic acid and LM. […] Additional competition assays performed in lung adenocarcinoma cell A549 lysate also identified HDAC1, HDAC2, and HDAC6 as targets (Supplementary Fig. 1b). Amongst the three cell lines tested, HDACs were the only confidently identified targets across the 1500–3000 proteins quantified in these assays. […] We validated the results by analogous pulldown competition assays using two other affinity matrices prepared via the immobilization of either the HDAC inhibitor Quisinostat (iQ) and an analog of the class IIa HDAC inhibitor Bürli’s 31[14] (iC)[12]. We have previously shown that these affinity matrices specifically bind to the active sites of HDACs and have used them for HDACi selectivity profiling. Indeed, binding of (R/S)-LA and (R/S)-LM to HDAC1, HDAC2, HDAC3, HDAC6, and, to a lesser extent, HDAC8 was confirmed in these assays (Supplementary Fig. 1c, d). No binding to class IIa HDACs or the recently discovered common HDAC inhibitor off-target MBLAC2 was observed (Supplementary Fig. 1e)[12]. […] This observation might reflect electrostatic repulsion between the HDAC10 active site gate-keeper glutamic acid residues[15],[16] and the terminal carboxylic acid of LA.
To assess the degree of protein depletion from lysates by the affinity matrix, a second pulldown (PDPD) with fresh beads was performed using the unbound protein fraction from the vehicle control flow through. The beads were washed (1 × 1 mL of lysis buffer without inhibitors and only 0.4% Igepal, 2 × 2 mL of lysis buffer without inhibitors and only 0.2% Igepal), and captured proteins were denatured with 8 M urea buffer, alkylated with 55 mM chloroacetamide and digested with Trypsin according to standard procedures. The resulting peptides were desalted on a C18 filter plate (Sep-Pak® tC18 µElution Plate, Waters), vacuum dried, and stored at −20 °C until LC–MSMS measurement.
For the competition assays, relative binding was calculated based on the protein intensity ratio to the DMSO control for every single inhibitor concentration. EC50 values were derived from a four-parameter log-logistic regression with variable slope (constrain: bottom > 0). The obtained EC50 values were multiplied with a protein-dependent correction factor (cf), resulting in the apparent Kd value (Kd^app). The correction factor is determined by calculating the ratio of the protein intensity of two consecutive pulldowns of the vehicle control sample[13]. Targets of the inhibitors were annotated manually according to published procedures[12],[46],[47]. […] Additionally, the number of unique peptides and MSMS counts per condition were taken into account. Positive target binding across several independent experiments performed with different cell lysates further substantiated our confidence for a true positive drug-target binding event.

T1 sequence (O15379 whole entry): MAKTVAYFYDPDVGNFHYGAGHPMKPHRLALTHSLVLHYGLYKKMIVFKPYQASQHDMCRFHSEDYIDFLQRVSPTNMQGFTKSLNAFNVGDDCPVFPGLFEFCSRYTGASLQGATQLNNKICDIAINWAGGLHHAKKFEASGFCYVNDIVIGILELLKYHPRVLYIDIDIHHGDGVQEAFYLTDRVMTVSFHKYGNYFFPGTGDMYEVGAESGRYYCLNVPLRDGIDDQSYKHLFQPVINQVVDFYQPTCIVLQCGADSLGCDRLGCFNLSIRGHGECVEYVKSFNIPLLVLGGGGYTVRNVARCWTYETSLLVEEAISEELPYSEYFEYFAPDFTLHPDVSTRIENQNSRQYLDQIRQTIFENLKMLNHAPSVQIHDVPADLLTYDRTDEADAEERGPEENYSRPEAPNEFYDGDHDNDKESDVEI
T1 sequence (Q9Y618 395-489 partner limits assumed): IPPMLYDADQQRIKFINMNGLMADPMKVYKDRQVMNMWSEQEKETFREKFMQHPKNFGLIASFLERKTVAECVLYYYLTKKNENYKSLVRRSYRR

| SMILES | EC50 (HDAC3/NcoR2 complex) [µM] | HDCA3 relative activity (HDAC3/NcoR2 complex; log conc -3.30103) | HDCA3 relative activity (HDAC3/NcoR2 complex; log conc -3.82945) | HDCA3 relative activity (HDAC3/NcoR2 complex; log conc -4.35788) | HDCA3 relative activity (HDAC3/NcoR2 complex; log conc -4.88629) | HDCA3 relative activity (HDAC3/NcoR2 complex; log conc -5.41477) | HDCA3 relative activity (HDAC3/NcoR2 complex; log conc -5.94309) | HDCA3 relative activity (HDAC3/NcoR2 complex; log conc -6.47756) | HDCA3 relative activity (HDAC3/NcoR2 complex; log conc -6.87615) | Kd (HDAC8) [µM] | relative binding vs DMSO (HDAC8; log10 M -3.52288) | relative binding vs DMSO (HDAC8; log10 M -4) | relative binding vs DMSO (HDAC8; log10 M -4.52288) | relative binding vs DMSO (HDAC8; log10 M -5) | relative binding vs DMSO (HDAC8; log10 M -5.52288) | relative binding vs DMSO (HDAC8; log10 M -6) | relative binding vs DMSO (HDAC8; log10 M -6.52288) | relative binding vs DMSO (HDAC8; log10 M -7) | further results |
| --- | --- | --- | --- | --- | --- | --- | --- | --- | --- | --- | --- | --- | --- | --- | --- | --- | --- | --- | --- |
| O=C(O)CCCCC1CCSS1 (racemic) [(R/S)-LA, (R/S)-lipoic acid] | 41.7 | 4.168 and 4.13 and 4.176 | 8.909 and 8.94 and 8.919 | 25.3559 and 24.0859 and 24.4605 | 55.6369 and 56.3521 and 62.4157 | 100.947 and 102.17 and 103.057 | 105.476 and 106.045 and 106.401 | 89.5862 and 90.873 and 93.4553 | 104.127 and 108.406 and 102.786 | 39.8 | 0.618 | 0.6642 | 1.003 | 1.048 | 1.024 | 1.06 | 0.9713 | 1.01 | HDAC enzymatic activity (normalized luminescence) (HDAC3/NcoR2 complex; 0.5 M TCEP, log10 M -3.30103, 3 technical replicates): 7.256 and 7.282 and 7.339; HDAC enzymatic activity (normalized luminescence) (HDAC3/NcoR2 complex; 0.5 M TCEP, log10 M -3.82945, 3 technical replicates): 17.0785 and 16.9479 and 17.22; HDAC enzymatic activity (normalized luminescence) (HDAC3/NcoR2 complex; 0.5 M TCEP, log10 M -4.35788, 3 technical replicates): 49.3596 and 49.0858 and 50.0362; HDAC enzymatic activity (normalized luminescence) (HDAC3/NcoR2 complex; 0.5 M TCEP, log10 M -4.88629, 3 technical replicates): 95.5948 and 97.1564 and 98.2162; HDAC enzymatic activity (normalized luminescence) (HDAC3/NcoR2 complex; 0.5 M TCEP, log10 M -5.41477, 3 technical replicates): 101.96 and 103.73 and 105.005; HDAC enzymatic activity (normalized luminescence) (HDAC3/NcoR2 complex; 0.5 M TCEP, log10 M -5.94309, 3 technical replicates): 91.2378 and 92.4271 and 93.0815; HDAC enzymatic activity (normalized luminescence) (HDAC3/NcoR2 complex; 0.5 M TCEP, log10 M -6.47756, 3 technical replicates): 89.2879 and 93.1305 and 94.7241; HDAC enzymatic activity (normalized luminescence) (HDAC3/NcoR2 complex; 0.5 M TCEP, log10 M -6.87615, 3 technical replicates): 90.3991 and 92.4306 and 92.5457; HDAC enzymatic activity (normalized luminescence) (HDAC3/NcoR2 complex; no TCEP, log10 M -3.30103, 3 technical replicates): 64.3889 and 65.753 and 66.6157; HDAC enzymatic activity (normalized luminescence) (HDAC3/NcoR2 complex; no TCEP, log10 M -3.82945, 3 technical replicates): 67.3361 and 68.514 and 68.6262; HDAC enzymatic activity (normalized luminescence) (HDAC3/NcoR2 complex; no TCEP, log10 M -4.35788, 3 technical replicates): 79.5043 and 81.2871 and 81.6059; HDAC enzymatic activity (normalized luminescence) (HDAC3/NcoR2 complex; no TCEP, log10 M -4.88629, 3 technical replicates): 87.8136 and 89.4197 and 90.6707; HDAC enzymatic activity (normalized luminescence) (HDAC3/NcoR2 complex; no TCEP, log10 M -5.41477, 3 technical replicates): 88.1589 and 90.4647 and 92.122; HDAC enzymatic activity (normalized luminescence) (HDAC3/NcoR2 complex; no TCEP, log10 M -5.94309, 3 technical replicates): 88.1501 and 88.386 and 90.7058; HDAC enzymatic activity (normalized luminescence) (HDAC3/NcoR2 complex; no TCEP, log10 M -6.47756, 3 technical replicates): 88.6188 and 88.5508 and 90.3108; HDAC enzymatic activity (normalized luminescence) (HDAC3/NcoR2 complex; no TCEP, log10 M -6.87615, 3 technical replicates): 97.6646 and 98.0479 and 97.5948 |
| NC(=O)CCCCC1CCSS1 (racemic) [(R/S)-LM, (R/S)-lipoamide] | 15.6 | 69.6623 and 70.4079 and 69.1097 | 75.2589 and 76.6842 and 75.5671 | 87.3214 and 88.0897 and 87.877 | 91.0887 and 91.1636 and 92.3406 | 88.6242 and 91.0601 and 91.2237 | 95.2751 and 94.3928 and 97.2335 | 90.1183 and 90.3135 and 93.1985 | 107.529 and 106.868 and 106.288 | 15.8 | 0.4707 | 0.4645 | 0.802 | 1.001 | 1.106 | 1.189 | 0.8797 | 0.9776 | – |
